Measurements reported in patent publication US20210108199A1, “Treatment for aggressive cancers by targeting C9ORF72” (The Trustees of Columbia University in the City of New York, priority 2017, published 2021).

Columns and labels:
[1] = system: LAMP1; assay: LAMP1 western blot; format: cell-based; details: U87 cells
Procedure: (§1) For Western blot analysis, cells were lysed with lysis buffer (20 mM sodium phosphate (pH 7.0), 250 mM NaCl, 30 mM sodium pyrophosphate, 0.1% Nonidet™ P-40, 5 mM EDTA, 10 mM NaF, 0.1 mM Na3VO4, and 1 mM PMSF) supplemented with complete protease inhibitors (Roche™) and homogenized by passage through a 28 gauge needle. Protein concentration was measured with a Bio-Rad™ protein assay dye reagent and results were read using a spectrophotometer (BiophotometerPlus™ by Eppendorf™). Protein extracts were resolved by SDS PAGE on gradient (Thermo Fisher™) or 12% gels. Proteins were then electrotransferred at 350 mA for 80 minutes onto a PVDF membrane (Immobilon-P PVDF). Membranes were blocked with PBST with 5% milk and 1% BSA for 30 minutes. Quantitation of blots was performed Image Studio Lite software (LI-COR Biosciences™).
To this end, C9 was knocked down in U87 cells and employed a fluorescent autophagy marker ptfLC3 to mark autophagosomes and autophagolysosomes. […] The white arrows show vacuoles and the white box represents a zoom in of the cell area with vacuoles. […] The white box here represents a zoom in of the cell area with vacuoles, nuclei stained with DAPI (blue). FIG. 4B is a WB showing LAMP1 levels after control (siCtrl) and C9 KD (siC9; SEQ ID NO:631).

[2] = system: C9; assay: C9 knock down efficiency by western blot; format: cell-based; details: U87 cells, vs control siRNA
Procedure: For siRNA knockdown experiments, siRNAs targeting C9 mRNA were designed with the Whitehead website (sirna.wi.mit.edu) and with RNAxs webserver (rna.tbi.univie.ac.at/cgi-bin/RNAxs). All siRNAs were obtained from GenePharma™. Lipofectamine RNAiMAX (Thermo Scientific™) was used as the transfection reagent for all siRNA experiments (according to the manufacturer's instructions). siRNA concentration was 40 nM per 60 mm plate. After 6 hours, media was changed and cells were treated again with siRNA after 48 hours. For RNA and protein analysis, cells were harvested after 48 hours following the second treatment. All KD experiments were performed in three biological replicates. The siRNA sequences were as follows: […] (SEQ ID NO:631; sense) and […] […]
as §1, with “Protein extracts were resolved by SDS PAGE on gradient (Thermo Fisher™) or 12% gels. Proteins were then electrotransferred at 350 mA for 80 minutes onto a PVDF membrane (Immobilon-P PVDF). Membranes were blocked with PBST with 5% milk and 1% BSA for 30 minutes.” left out, “Biosciences™). […]” for “Biosciences™).”

[3] = system: U87 cells; assay: Vacuole quantitation in phase contrast images after C9 KD; format: cell-based; details: 3 days, vs siCtrl
Procedure: For siRNA knockdown experiments, siRNAs targeting C9 mRNA were designed with the Whitehead website (sirna.wi.mit.edu) and with RNAxs webserver (rna.tbi.univie.ac.at/cgi-bin/RNAxs). All siRNAs were obtained from GenePharma™. Lipofectamine RNAiMAX (Thermo Scientific™) was used as the transfection reagent for all siRNA experiments (according to the manufacturer's instructions). siRNA concentration was 40 nM per 60 mm plate. After 6 hours, media was changed and cells were treated again with siRNA after 48 hours. For RNA and protein analysis, cells were harvested after 48 hours following the second treatment. All KD experiments were performed in three biological replicates. The siRNA sequences were as follows: […] (SEQ ID NO:631; sense) and […] (SEQ ID NO:632; antisense); and GCACAUAUGGACUAUCAAUtt (SEQ ID NO:633; sense) and AUUGAUAGUCCAUAUGUGCtg (SEQ ID NO:634; antisense). The lower case letters in the sequence indicate location where optional modifications can be placed to enhance stability of the RNA.
The vacuoles were examined in order to reveal the mechanism by which C9 protein levels contribute to vacuole initiation. […] The number of vacuoles per cell were counted using imageJ™ from 3 biological replicates and a total of about 50 cells were quantitated, each dot representing a measurement of vacuoles per one cell FIG. 2A). […] Statistical significance was assessed by two tailed t-test. […]

[4] = system: γ-H2AX; assay: γ-H2AX western blot and foci quantitation; format: cell-based; details: U87 cells
Procedure: Cells were treated with control and C9 siRNA for three days. Cells then were fixed and stained as described in the as described above with p-H2AX(S139, #25575) antibody. For a DNA damage positive control, 0.5 μM doxorubicin hydrochloride (Sigma™, D151510MG) was used for 24 hours before imaging. Cells were then imaged using LSM 700 Carl Zeiss™. To quantify p-H2AX foci we used a publicly available software FoCo™ as described previously.
To further confirm the presence of DNA damage upon C9 KD, the DNA damage marker γ-H2AX was used as a probe on C9 KD. […] Immunofluorescence was used to image and quantitate γ-H2AX foci in control, C9 KD and doxorubicin-treated U87 cells.
FIG. 25A is a WB showing γ-H2AX and ubiquitinated γ-H2AX, control (siCtrl) and C9 KD (siC9; SEQ ID NO:631), with loading of control actin. FIG. 25B is a set of IF images of U87 cells stained for γ-H2AX (green). FIG. 25C is a graph quantitating about 90 cells (from three biological replicates) for γ-H2AX foci per cell between control (siCtrl) C9 KD (siC9) and DOX-treated U87 cells. Statistical significance was assessed by an unpaired t-test: NS P>0.05, *P≤0.05, **P≤0.01, ***P≤0.001 ****P≤0.0001.

[5] = system: U2OS cells; assay: Western blot of U2OS cells after C9 KD; format: cell-based, human
Procedure: as §1
See FIG. 28, a WB of U2OS cells treated with control and C9 siRNA and probed for PARP1, p-p53 (s15), p53, p-ERK, p21, p-H2AX, using actin as a loading control.

[6] = system: p53 null U87 cells; assay: Vacuoles in p53 null U87 clones; format: cell-based; details: p53 null U87 clones KO #4 and KO #9
Procedure: To generate p53 knockout clones, U87 cells (7×10^5) were transfected with 2 μg p53 CRISPR/Cas9 KO plasmid (Santa Cruz Biotech™, sc-416469) using Lipofectamine 2000 (ThermoFisher™). Two days later, cells were treated with Nutlin-3 (10 μM) for 12 days to inhibit proliferation of cells with wild type p53, thereby enriching for p53 knockout cells. Single-cell clones were selected via limiting dilution, and p53 knockout clones were confirmed by western blotting using p53 antibody (FL-393).
C9 then was knocked down with two independent siRNAs in the two U87 p53 null clones. […] See FIG. 33A, which provides phase contrast images (40×) of two clones (KO #4 and KO #9) of p53 null U87 cells generated by CRISPR, treated with control (siCtrl) and C9 (siC9; SEQ ID NO:631) siRNA, and FIG. 33B, a WB showing C9 levels after C9 KD in KO #4 cells.
FIG. 34 is a graph presenting quantitation of data for about 90 cells, indicating the number of vacuoles per cell. Statistical significance was assessed by unpaired t-test: NS P>0.05, *P≤0.05, **P≤0.01, ***P≤0.001 ****P≤0.0001. FIG. 35 is a WB showing PARP1, phospho-ERK and γ-H2AX levels upon C9 KD (siC9; SEQ ID NO:631) in U87 KO #4 cell line.

For “siC9: siRNA targeting C9 mRNA: UUAAUGAAACAAUAAUCACUC (SEQ ID NO:631; sense) and GUGAUUAUUGUUUCAUUAAUC (SEQ ID NO:632; antisense) (listed as RNA, chemistry not given here)”, the LAMP1 levels [1] was “increased levels”, the “C9 expression (western blot)” value [2] was “reduced expression compared to control” and the size of vacuoles [3] was “significant increase”. For the same substance, the “total vacuoles per cell” value [3] was “significant increase”, the “γ-H2AX levels (western blot)” value [4] was “increased γ-H2AX levels” and the “γ-H2AX foci per cell” value ([4]; immunofluorescence) was “significant increase in γ-H2AX foci”. For the same substance, the CDKN1A/p21 protein levels [5] was “increase in CDKN1A/p21 protein levels”, the PARP1 level [5] was “PARP1 downregulation” and the p53 levels [5] was “increased p53 levels”. The p-ERK [5] was “increases in p-ERK”, the “phosphorylated p53 (on s15)” value [5] was “increases in phosphorylated p53” and the γ-H2AX [5] was “increases”. The vacuolization [6] was “no significant increase in vacuolization”.
